# In article PMC7679387, “VZHE-039, a novel antisickling agent that prevents erythrocyte sickling under both hypoxic and anoxic conditions” (Scientific Reports, 2020):
# Several values for one entry are separate records, joined by “and”; a condition that tells them apart may be missing. Equal values may be shown once.
# Legend:
# Hb = molecular target: T1, Hb (Homo sapiens, UniProt P69905); assay: Oxygen equilibrium (P50 shift) of lysates from SS cells, Hemox Analyzer; type: cell-based; details: 20% hematocrit
# T1 construct: whole blood suspensions from subjects with homozygous SCD (Hct of 20%); from tissue; host or cells: whole blood / red blood cells of patients with homozygous SS sickle cell disease; lysate for HPLC and OEC
# T1 sequence (P69905 2-142): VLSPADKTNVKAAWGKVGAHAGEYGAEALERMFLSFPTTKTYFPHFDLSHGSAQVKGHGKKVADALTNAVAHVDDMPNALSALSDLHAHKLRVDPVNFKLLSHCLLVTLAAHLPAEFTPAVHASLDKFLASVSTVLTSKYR
# T1 sequence (P68871 with tags, fused parts or gaps E7V partner): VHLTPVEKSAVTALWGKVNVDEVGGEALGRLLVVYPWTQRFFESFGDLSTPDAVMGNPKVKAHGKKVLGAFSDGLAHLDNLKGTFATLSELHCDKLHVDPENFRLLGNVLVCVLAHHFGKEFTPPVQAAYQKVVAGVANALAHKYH
# Protocol: For our previously studied compounds (e.g., INN-312, TD-7, SAJ-310, INN-298) that incorporate methoxyPy substitution to vanillin analogs, we observed a significant increase in functional and biological activity as a result of increased protein interactions[31],[33],[35],[36]. We therefore expected similar effects for VZHE-039, which we tested by following VZHE-039 activity (measured by Hb adduct formation, P50-shift and RBC sickling inhibition) using SS blood. Briefly, we incubated 0.5, 1, and 2 mM concentrations of VZHE-039 with whole blood suspensions from subjects with homozygous SCD (Hct of 20%) under hypoxic conditions (2.5% O2/97.5% N2) at 37 °C for 2 h for expected peak adduct. Aliquot blood samples were drawn into a fixative (2% glutaraldehyde solution), and sickling was assessed by microscopy[31],[33],[35],[36]. Aliquot samples were also subjected to cation-exchange HPLC analyses to assess the degree of Hb modification to the high-affinity adduct form (Hb adduct formation), as well as standard O2 equilibrium curves (OEC) to assess P50-shifts using hemox analyzer[31],[33],[35],[36]. […] The improved potency of Voxelotor has been attributed to reduced binding stoichiometry, i.e. while Voxelotor binds Hb at a 1:1 ratio, VZHE-039 binds Hb at a 2:1 ratio. […] This observation, as will be discussed later is likely due to a meaningful contribution from the novel O2-independent antisickling activity as result of the strong contact with the αF-helix.
# The effect of VZHE-039 on RBC sickling, Hb modification, and Hb oxygen equilibrium was studied utilizing samples from consented individuals with homozygous SCD following previous procedure. Briefly, blood suspended in Hemox buffer and supplemented with glucose and bovine serum albumin, to a final hematocrit of 20% were incubated under air in the absence or presence of 0.5 mM, 1 mM and 2 mM VZHE-039 at 37 °C for 1 h. This was followed by incubating the suspensions under hypoxic conditions (2.5% O2/97.5% N2) at 37 °C for 2 h. Aliquot samples were obtained and fixed with 2% glutaraldehyde solution without exposure to air, and then subjected to microscopic morphological analysis of bright field images (at × 40 magnification) of single layer cells on an Olympus BX40 microscope fitted with an Infinity 2 camera (Olympus), and the coupled Image Capture software. Leftover samples were washed in phosphate-buffer saline, and hemolyzed in hypotonic lysis buffer for subsequent Hb-modification and oxygen equilibrium analyses.
# For the oxygen equilibrium studies, 100 μL aliquot samples from the above clarified lysate were added to 4 mL of 0.1 M potassium phosphate buffer, pH 7.0, in cuvettes and subjected to hemoximetry analysis using a Hemox Analyzer (TCS Scientific Corp.) to determine the P50 values.
# CYP1A2 = molecular target: T2, CYP1A2 (Homo sapiens, UniProt P05177); assay: In vitro CYP inhibition, pooled human liver microsomes
# T2 sequence (P05177 1-516): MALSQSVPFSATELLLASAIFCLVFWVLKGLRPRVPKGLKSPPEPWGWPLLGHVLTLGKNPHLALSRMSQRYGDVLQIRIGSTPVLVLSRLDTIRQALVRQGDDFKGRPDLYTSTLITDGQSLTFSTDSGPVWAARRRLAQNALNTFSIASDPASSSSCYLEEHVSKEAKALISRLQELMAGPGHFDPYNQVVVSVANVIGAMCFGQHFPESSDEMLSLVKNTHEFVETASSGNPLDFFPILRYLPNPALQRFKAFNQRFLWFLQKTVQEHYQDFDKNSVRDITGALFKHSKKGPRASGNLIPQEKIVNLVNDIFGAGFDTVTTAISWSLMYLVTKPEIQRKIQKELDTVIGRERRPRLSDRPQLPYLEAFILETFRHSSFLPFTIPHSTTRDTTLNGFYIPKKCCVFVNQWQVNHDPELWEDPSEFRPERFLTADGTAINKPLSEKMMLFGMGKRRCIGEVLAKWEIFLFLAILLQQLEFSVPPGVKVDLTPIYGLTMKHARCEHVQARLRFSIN
# Protocol: Next, we tested VZHE-039 at concentrations of 0.1 to 100 µM, considered to be biologically relevant unbound plasma concentrations, for possible CYP inhibition using pooled human liver microsomes and isozyme-specific probe substrates (CYP1A2, CYP2C8, CYP2C9, CYP2C19, CYP2D6, CYP3A4, CYP2B6)[55].
# VZHE-039 was studied for its inhibitory potential of seven major drug metabolizing human cytochrome P450 (CYP) enzymes (CYP1A2, CYP2C8, CYP2C9, CYP2C19, CYP2D6, CYP3A4, CYP2B6) using pooled human liver microsomes as published previously[26],[55]. The probe substrates include tacrine (CYP1A2), amodiaquine (CYP2C8), tolbutamide (CYP2C9), mephenytoin (CYP2C19), dextromethorphan (CYP2D6), midazolam (CYP3A4), testosterone (CYP3A4), and bupropion (CYP2B6). […] Assay conditions were optimized for each human cytochrome P450 substrate. The optimized reaction mixtures (200 μL) contained a final concentration of 0.2–0.5 mg/mL pooled human liver microsomes, 2 mM NADPH in 100 mM potassium phosphate, pH 7.4 buffer with 5 mM MgCl2, and VZHE-039 concentration of 0.1 to 100 µM. […] Effect of VZHE-039 on formation of the respective probe substrate metabolites (velnacrine, N‐desethylamodiaquine, 4-hydroxytolbutamide, 4′-hydroxymephenytoin, dextrophan, 1′-hydroxymidazolam, and 6β-hydroxtestosterone and hydroxybupropion) were determined using LC–MS/MS.
smiles,measurement,setting,value
"O=Cc1c(O)cccc1OCc1cccc(CO)n1 [VZHE-039, 2-((6-(Hydroxymethyl)pyridin-2-yl)methoxy)-6-hydroxybenzaldehyde]",P50 Shift (ΔP50),Hb; 0.5 mM,22% and 22.3 ± 8.7%
same,P50 Shift (ΔP50),Hb; 1 mM,47% and 46.6 ± 5.4%
same,P50 Shift (ΔP50),Hb; 2 mM,76% and 75.6 ± 2.5%
same,IC50,CYP1A2,4.7 µM
